Test results taken from patent US12378194B2, “N, n-dimethyltryptamine salts and crystalline salt forms” (ATAI Therapeutics, Inc., priority 2021, dated 2025).

How the values were obtained:
[1] = Brito-da-Costa et al 2020; cited from earlier work
[2] = free base; cited from earlier work
[3] = Dynamic vapor sorption (DVS) hygroscopicity; type: physicochemical; conditions: for Hygroscopicity [DVS], grade in words: DVS 5% to 95% RH; for DVS wt. loss 95% to 5% RH: desorption 95% to 5% RH; for DVS wt. gain 5% to 95% RH / DVS water uptake 5% to 95% RH: sorption 5% to 95% RH; for DVS water uptake 5% to 95% RH / DVS water uptake 5% to 75% RH / DVS water uptake 75% to 95% RH: mol water per mol; for DVS hysteresis: sorption vs desorption; for DVS wt. loss 75% to 5% RH: desorption 75% to 5% RH; for DVS wt. loss 95% to 75% RH: desorption 95% to 75% RH; for DVS wt. gain 5% to 75% RH / DVS water uptake 5% to 75% RH: sorption 5% to 75% RH; for DVS wt. gain 75% to 95% RH / DVS water uptake 75% to 95% RH: sorption 75% to 95% RH
[4] = Physical appearance and form stability at high relative humidity; type: physicochemical; conditions: for Hygroscopicity [physical appearance at high RH]: 90% RH, RT

Question: Which results are given for `CN(C)CCc1c[nH]c2ccccc12` [DMT free base, N,N-dimethyltryptamine]?
Answer: Degradation rate in solution [1]: fast degradation rate; Solubility in water [2]: extremely low

Question: For `CN(C)CCc1c[nH]c2ccccc12.O=C(O)CCC(=O)O` [DMT Succinate Form A], which “Hygroscopicity [DVS], grade in words” value [3] is on record?
Answer: low

Question: What about the “Hygroscopicity [DVS], grade in words” value ([3]; listed as DMT succinate Form A) of the same molecule?
Answer: least hygroscopic

Question: And the “Hygroscopicity [DVS], grade in words” value ([3]; listed as Succinate A)?
Answer: Low hygroscopicity

Question: And the “DVS wt. loss 95% to 5% RH” value [3]?
Answer: 0.175% wt.

Question: And the “DVS wt. loss 95% to 5% RH” value ([3]; listed as Succinate A)?
Answer: 95% to 5%: 0.175% wt. loss some

Question: And the “DVS wt. gain 5% to 95% RH” value [3]?
Answer: 0.171% wt.

Question: What about the “DVS wt. gain 5% to 95% RH” value ([3]; listed as Succinate A) of the same molecule?
Answer: 0.171 % wt.

Question: What about the “DVS water uptake 5% to 95% RH” value [3] of the same molecule?
Answer: (0.03 mol/mol

Question: What about the “DVS water uptake 5% to 95% RH” value ([3]; listed as Succinate A) of the same molecule?
Answer: 0.03 mol/mol

Question: And the DVS hysteresis [3]?
Answer: hysteresis

Question: What about the “Hygroscopicity [physical appearance at high RH]” value ([4]; 7 days) of the same molecule?
Answer: white solid

Question: What about the “Physical form after water absorption” value ([4]; after water absorption) of the same molecule?
Answer: preservation of the physical form

Question: Which results are given for `CN(C)CCc1c[nH]c2ccccc12.O=C(O)C[C@H](O)C(=O)O` [DMT Malate Form A]?
Answer: Hygroscopicity [DVS], grade in words [3]: significant; Hygroscopicity [DVS], grade in words ([3]; listed as Malate A): Significant hygroscopicity; DVS wt. loss 75% to 5% RH [3]: 1.37% wt. loss; DVS wt. loss 75% to 5% RH ([3]; listed as Malate A): 75% to 5%: 1.37% wt loss % wt.; DVS wt. loss 95% to 75% RH [3]: 9.59% wt. loss; DVS wt. loss 95% to 75% RH ([3]; listed as Malate A): 95% to 75%: 9.59% wt. loss; DVS wt. gain 5% to 75% RH [3]: 1.21% wt. gain; DVS wt. gain 5% to 75% RH ([3]; listed as Malate A): 1.21 % wt.; DVS water uptake 5% to 75% RH [3]: (0.4 mol/mol; DVS water uptake 5% to 75% RH ([3]; listed as Malate A): 0.4 mol/mol; DVS wt. gain 75% to 95% RH [3]: 9.75% wt. gain; DVS wt. gain 75% to 95% RH ([3]; listed as Malate A): 9.75 % wt.; DVS water uptake 75% to 95% RH [3]: (1.7 mol/mol; DVS water uptake 75% to 95% RH ([3]; listed as Malate A): 1.7 mol/mol; Hygroscopicity [physical appearance at high RH] ([4]; 7 days): white solid

Question: With `CN(C)CCc1c[nH]c2ccccc12.O=C(O)/C=C/C(=O)O` [DMT Fumarate Form A] as the molecule, how does the “Hygroscopicity [DVS], grade in words” value [3] read?
Answer: limited

Question: What about the “Hygroscopicity [DVS], grade in words” value ([3]; listed as Fumarate A) of the same molecule?
Answer: Limited hygroscopicity

Question: What about the “DVS wt. loss 95% to 5% RH” value [3] of the same molecule?
Answer: 0.679% wt.

Question: And the “DVS wt. loss 95% to 5% RH” value ([3]; listed as Fumarate A)?
Answer: 95% to 5%: 0.679% wt. loss some

Question: And the “DVS wt. gain 5% to 95% RH” value [3]?
Answer: 0.573% wt.

Question: What about the “DVS wt. gain 5% to 95% RH” value ([3]; listed as Fumarate A) of the same molecule?
Answer: 0.573 % wt.

Question: What about the “DVS water uptake 5% to 95% RH” value [3] of the same molecule?
Answer: (0.1 mol/mol

Question: And the “DVS water uptake 5% to 95% RH” value ([3]; listed as Fumarate A)?
Answer: 0.1 mol/mol

Question: What about the DVS hysteresis [3] of the same molecule?
Answer: hysteresis

Question: What about the “Hygroscopicity [physical appearance at high RH]” value ([4]; 7 days) of the same molecule?
Answer: white solid

Question: With `CN(C)CCc1c[nH]c2ccccc12.O=S(=O)(O)O` [DMT Sulfate Form A] as the molecule, how does the “Hygroscopicity [physical appearance at high RH]” value ([4]; 1 day) read?
Answer: oil/deliquesced
